Assay results as given in patent publication US20190030046A1, “USE OF PURE COMPOUNDS EXTRACTED FROM ANTRODIA CAMPHORATA” (priority 2016, published 2019).

How the values were obtained:
membrane GLUT4 [1] = experiment: Membrane GLUT4 protein expression in C2C12 myotube cells (Western blot); type: cell-based; conditions: 25 min
Procedure: (§1) In the present invention, C2C12 skeletal myoblasts (ATCC, CRL-1772) were maintained in growth media consisting of Dulbecco's modified Eagle's medium (DMEM) (Gibco BRL) and supplemented with 10% Fetal Bovine Serum (FBS) (Hyclone) and 100 U/mL penicillin/100 μg/mL streptomycin (Gibco BRL), and split 1:4 using 0.05% trypsin when 80% confluent. Myoblasts were diluted and placed in a 9 cm-diameter dish. Cells were cultured to achieve 80%-90% confluency and then the growth media was changed as 2% FBS/DMEM every 24 h for 5-7 days.
(§2) In experiments for determining GLUT4 and p-Akt(Ser473)/t-Akt proteins in tubes, differentiated C2C12 cells were serum-starved in DMEM/BSA for 2 h at 37° C. prior to incubation with MeOH crude extract (at 20, 100, 200, and 500 μg/mL), test compounds (at 1, 5, 10, and 25 μg/mL), or vehicle for 25 min, or 100 nM insulin for 25 min.
(§3) The cultures obtained by cell culture above were centrifuged, and the resulting pellet was resuspended in a homogenization buffer. The forgoing steps were performed with a filtration membrane. Protein concentrations were measured using a BCA assay (Pierce). Equal amounts of protein were diluted four times in SDS sample buffer, and subjected to SDS PAGE and Western blotting with antibodies specific for Akt, p-Akt Ser^473, and GLUT4. Density blotting analysis was performed using Alpha Easy FC software.

[2] = test system: phospho-Akt(Ser473)/total-Akt(Ser473); experiment: phospho-Akt(Ser473)/total-Akt in C2C12 myotube cells (Western blot); type: cell-based; conditions: 25 min
Procedure: as §1, §2, §3

GPAT = experiment: Semiquantitative RT-PCR in liver tissue: GPAT; type: in vivo, C57BL/6J mice; conditions: vs HF; HF+Metf, 0.3 g/kg/day oral, 4 weeks
Procedure: (§4) The difference indicates the daily food intake.
(§5) Total RNA from liver tissue was isolated with a Trizol Reagent (Molecular Research Center, Inc., Cincinnati, Ohio, USA) according to the manufacturer's instructions. The integrity of the extracted total RNA was examined by 2% agarose gel electrophoresis, and the RNA concentration was determined by […] ultraviolet (UV) light absorbency at 260 nm and 280 nm (Spectrophotometer U-2800A, Hitachi). The total RNA (1 μg) was reverse transcribed to cDNA, and 5 μL Moloney murine leukemia virus reverse transcriptase (TEpicentre, Madison, Wis., USA). The PCR was performed in a final 25 μL containing 1 U Blend Taq-Plus (TOYOBO, Japan), 10 μL of the RT cDNA product, 10 μM of each forward (F) and reverse (R) primer, 75 mM Tris-HCL (pH 8.3) containing 1 mg/L Tween 20 (pH 8.3, also known as polyoxyethylene sorbitan monolaurate), 2.5 mM dNTP (deoxy-ribonucleoside triphosphate), and 2 mM MgCl2 (magnesium chloride). The PCR products were analyzed by 2% agarose gel and stained with ethidium bromide.

[3] = HFD-induced diabetic mice: fasting blood glucose and biochemical indexes; conditions: 4 weeks; for Blood glucose: 12 h fasted HFD mice; for Insulin / Leptin: blood
Procedure: The control group and HFD group contained 10% and 45% fat intake, respectively. The HFD mice were subdivided into 6 groups (9 per group) followed by 8-week induction. […] During the experiment, all mice were fasted overnight, and blood samples were collected from the retro-orbital sinus. Following four-week treatment and feeding, the food was removed, and the mice were fasted for 12 h and then sacrificed. Tissue samples required were collected from the mice and weighted. Some of the tissue samples were immediately stored at −80° C. and frozen for subsequent target gene analysis. Plasma samples were collected via centrifugation of whole blood at 1600×g for 15 min at 4° C., followed by plasma separation within 30 min. Some plasma samples obtained were used for TG and TC analysis. The metabolic parameters, including body weight, weight gain, and food intake, were performed as follows. Body weight was daily measured throughout the study. Body weight gain is considered as the difference between one day and the next day. The total weight of food intake was daily measured, followed by weighing the amount of remaining feed after 24 h. The difference indicates the daily food intake.
One part of the forgoing blood samples collected from the retro-orbital sinus of 12 h fasted mice was immediately used for analysis of glucose levels. The other part was used for analysis of blood TG, TC, free fatty acids, blood insulin, leptin, and adiponectin levels. Blood glucose levels were determined by a glucose analyzer (Model 1500 sidekick glucose analyzer, YSI). Plasma triglycerides (TG), total cholesterol (TC), and free fatty acids (FFA) were determined using commercial kits in accordance with manufacturer's instructions (Triglycerides-E test, Cholesterol-E test, and FFA-C test; Wako Pure Chemical, Osaka, Japan). Insulin and leptin levels were measured by enzyme-linked immunosorbent assay (ELISA) (mouse insulin ELISA kit, Mercodia, Uppsala, Sweden; mouse leptin ELISA kit, Morinaga, Yokohama, Japan).

[4] = HFD-induced diabetic mice: absolute tissue weight, body weight, food intake; type: in vivo, C57BL/6J mice; conditions: 4 weeks
Excerpt: as §4

G6-Pase = experiment: Semiquantitative RT-PCR in liver tissue: G6-Pase; type: in vivo, C57BL/6J mice; conditions: vs HF; HF+Metf, 0.3 g/kg/day oral, 4 weeks
Procedure: as §4, §5

CPT-1a = experiment: Semiquantitative RT-PCR in liver tissue: CPT-1a; type: in vivo, C57BL/6J mice; conditions: vs HF; HF+Metf, 0.3 g/kg/day oral, 4 weeks
Procedure: as §4, §5

phospho-AMPK(Thr172) = experiment: Western blot of phospho-AMPK(Thr172)/total-AMPK in skeletal muscle and liver of HFD mice; conditions: compared to HF; HF+Metf, 0.3 g/kg/day oral, 4 weeks
Procedure: (§6) The HFD mice were subdivided into 6 groups (9 per group) followed by 8-week induction. […] Following four-week treatment and feeding, the food was removed, and the mice were fasted for 12 h and then sacrificed. Tissue samples required were collected from the mice and weighted. Some of the tissue samples were immediately stored at −80° C. and frozen for subsequent target gene analysis. Plasma samples were collected via centrifugation of whole blood at 1600×g for 15 min at 4° C., followed by plasma separation within 30 min.
(§7) We determined PPARα and FAS protein expression levels in liver tissue, PPARγ and FAS protein expression levels in adipose tissue, and membrane GLUT4 expression in skeletal muscle adipose. The total membrane fraction was collected with the buffer and determined as previously described. The membrane GLUT4, p-AMPK, and total AMPK protein content were determined by Western Blotting as previously described.

SREBP-1c = experiment: Semiquantitative RT-PCR in liver tissue: SREBP-1c; type: in vivo, C57BL/6J mice; conditions: vs HF; HF+Metf, 0.3 g/kg/day oral, 4 weeks
Procedure: as §4, §5

[5] = HFD-induced diabetic mice: liver lipids; type: in vivo, C57BL/6J mice; conditions: 4 weeks
membrane GLUT4 [6] = experiment: Western blot of skeletal muscle membrane GLUT4 in HFD mice; conditions: compared to HF; HF+Metf, 0.3 g/kg/day oral, 4 weeks
Procedure: as §6, §7

PPARγ = experiment: Western blot of PPARγ protein in liver and adipose tissue of HFD mice; conditions: compared to HF; HF+Metf, 0.3 g/kg/day oral, 4 weeks
PPARα = experiment: Western blot of PPARα protein in liver of HFD mice; conditions: compared to HF; HF+Metf, 0.3 g/kg/day oral, 4 weeks
[7] = HFD-induced diabetic mice: histopathology (H-E) of epididymal white adipose and liver tissue; type: in vivo, C57BL/6J mice; conditions: epididymal white adipose, 4 weeks
Procedure: as §4
Examination was performed for parts of EWAT (epididymal white adipose) and liver tissue specimens collected. The specimens above were soaked in formalin and neutral buffered solution and embedded in paraffin. Parts therein (8 μm) were cut and stained with hematoxylin and eosin. Images were photographed by a microscope (Olympus BX51, Olympus, Tokyo, Japan). Please refer to FIGS. 3(A) and 3(B).

aP2 = experiment: Semiquantitative RT-PCR in liver tissue: aP2; type: in vivo, C57BL/6J mice; conditions: vs HF; HF+Metf, 0.3 g/kg/day oral, 4 weeks
Procedure: as §4, §5

11β-HSD1 = experiment: Semiquantitative RT-PCR in liver tissue: 11β-HSD1; type: in vivo, C57BL/6J mice; conditions: vs HF; HF+Metf, 0.3 g/kg/day oral, 4 weeks
Procedure: as §4, §5

FAS = experiment: Western blot of FAS protein in liver and adipose tissue of HFD mice; conditions: compared to HF; HF+Metf, 0.3 g/kg/day oral, 4 weeks
Procedure: as §6, §7

SREBP-2 = experiment: Semiquantitative RT-PCR in liver tissue: SREBP-2; type: in vivo, C57BL/6J mice; conditions: vs HF; HF+Metf, 0.3 g/kg/day oral, 4 weeks
Procedure: as §4, §5

[8] = HFD mice, HF+Metf, 300 mg/kg/day oral
[9] = plasma, HFD mice, HF+Metf, 300 mg/kg/day oral
[10] = HFD mice, HF+Feno, 250 mg/kg/day oral

Question: For insulin [reference compound], which “protein expression level of membrane GLUT4” value (membrane GLUT4 [1]; 100 nM insulin) is on record?
Answer: increase

Question: What about the “protein expression level of phospho-Akt(Ser473)/total-Akt(Ser473)” value ([2]; 100 nM insulin) of the same molecule?
Answer: increase

Question: For `C=C(CC[C@@H](C)[C@H]1CC[C@H]2C3=C(C(=O)C[C@]12C)[C@@]1(C)CC[C@@H](O)[C@](C)(O)[C@@H]1C[C@@H]3O)C(C)C(=O)O` (stereo partly shown) [AnK, Antcin K], which “protein expression level of membrane GLUT4” value (membrane GLUT4 [1]; 5, 10, and 25 μg/mL) is on record?
Answer: increase

Question: What about the “protein expression level of phospho-Akt(Ser473)/total-Akt(Ser473)” value ([2]; AnK 10 and 25 μg/mL) of the same molecule?
Answer: increase

Question: With `CN(C)C(=N)N=C(N)N` [Metf, metformin, reference compound] as the molecule, how does the “GPAT mRNA expression level in liver” value (GPAT) read?
Answer: decreased

Question: What about the Blood glucose ([3]; HF+Metf, 300 mg/kg/day oral) of the same molecule?
Answer: 87.33 mg/dL

Question: And the “Plasma FFA” value [3, 8]?
Answer: 0.85 meq/L

Question: And the Insulin [3, 8]?
Answer: 2.467 µg/L

Question: And the Leptin [3, 8]?
Answer: 7.359 ng/mL

Question: And the TC [3, 9]?
Answer: 117.20 mg/dL

Question: And the TG [3, 9]?
Answer: 82.07 mg/dL

Question: And the Absolute tissue weight: Visceral fat ([4]; EWAT plus RWAT, HF+Metf, 300 mg/kg/day oral)?
Answer: 662 mg

Question: What about the Absolute tissue weight: Brown adipose tissue (BAT) ([4]; HF+Metf, 300 mg/kg/day oral) of the same molecule?
Answer: 134 mg

Question: What about the Absolute tissue weight: Epididymal white adipose tissue (EWAT) ([4]; HF+Metf, 300 mg/kg/day oral) of the same molecule?
Answer: 482 mg

Question: And the Absolute tissue weight: Liver ([4]; HF+Metf, 300 mg/kg/day oral)?
Answer: 1960 mg

Question: And the Absolute tissue weight: Mesenteric white adipose tissue (MWAT) ([4]; HF+Metf, 300 mg/kg/day oral)?
Answer: 198 mg

Question: And the Absolute tissue weight: Retroperitoneal white adipose tissue (RWAT) ([4]; HF+Metf, 300 mg/kg/day oral)?
Answer: 180 mg

Question: What about the Absolute tissue weight: Spleen ([4]; HF+Metf, 300 mg/kg/day oral) of the same molecule?
Answer: 81 mg

Question: And the Final body weight ([4]; HF+Metf, 300 mg/kg/day oral)?
Answer: 26.35 g

Question: And the Food intake ([4]; HF+Metf, 300 mg/kg/day oral)?
Answer: 2.25 g/day/mouse

Question: And the Weight gain ([4]; HF+Metf, 300 mg/kg/day oral)?
Answer: 0.52 g

Question: What about the “G6-Pase mRNA expression level in liver” value (G6-Pase) of the same molecule?
Answer: decreased

Question: What about the “CPT-1a mRNA expression level in liver” value (CPT-1a) of the same molecule?
Answer: increased

Question: And the “expression level of p-AMPK/t-AMPK proteins in liver” value (phospho-AMPK(Thr172))?
Answer: significantly increased

Question: And the “expression level of phospho-AMPK/total-AMPK in skeletal muscle” value (phospho-AMPK(Thr172))?
Answer: significantly increased

Question: And the “SREBP-1c mRNA expression level in liver” value (SREBP-1c)?
Answer: decreased

Question: What about the “Liver lipids: Total lipid” value ([5]; HF+Metf, 300 mg/kg/day oral) of the same molecule?
Answer: 61.1 mg/g

Question: What about the Liver lipids: Triacylglycerol ([5]; HF+Metf, 300 mg/kg/day oral) of the same molecule?
Answer: 49 µmol/g

Question: And the “membrane expression level of GLUT4 in skeletal muscle” value (membrane GLUT4 [6])?
Answer: significantly increased

Question: And the “PPARγ protein expression level in adipose tissue” value (PPARγ)?
Answer: significantly decreased

Question: And the “PPARγ protein expression level in liver” value (PPARγ)?
Answer: significantly decreased

Question: What about the “PPAR protein expression level in liver” value (PPARα) of the same molecule?
Answer: significantly increased

Question: And the Adipocyte area ([7]; HF+Metf, 0.3 g/kg/day oral)?
Answer: 6919.5 ± 195.1 μm^2

Question: What about the “aP2 mRNA expression level in liver” value (aP2) of the same molecule?
Answer: decreased

Question: And the “11β-HSD1 mRNA expression level in liver” value (11β-HSD1)?
Answer: decreased

Question: What about the “FAS protein expression level in adipose tissue” value (FAS) of the same molecule?
Answer: significantly decreased

Question: And the “FAS protein expression level in liver” value (FAS)?
Answer: significantly decreased

Question: What about the “SREBP-2 mRNA expression level in liver” value (SREBP-2) of the same molecule?
Answer: decreased

Question: With `CC(C)OC(=O)C(C)(C)Oc1ccc(C(=O)c2ccc(Cl)cc2)cc1` [Feno, fenofibrate, reference compound] as the molecule, how does the Blood glucose ([3]; HF+Feno, 250 mg/kg/day oral) read?
Answer: 86.56 mg/dL

Question: And the “Plasma FFA” value [3, 10]?
Answer: 0.86 meq/L

Question: And the Insulin [3, 10]?
Answer: 2.402 µg/L

Question: What about the Leptin [3, 10] of the same molecule?
Answer: 7.507 ng/mL

Question: What about the TG ([3]; plasma, HFD mice, HF+Feno, 250 mg/kg/day oral) of the same molecule?
Answer: 83.35 mg/dL

Question: And the Final body weight ([4]; HF+Feno, 250 mg/kg/day oral)?
Answer: 26.04 g

Question: And the Food intake ([4]; HF+Feno, 250 mg/kg/day oral)?
Answer: 2.05 g/day/mouse

Question: What about the Weight gain ([4]; HF+Feno, 250 mg/kg/day oral) of the same molecule?
Answer: 0.46 g

Question: And the “Liver lipids: Total lipid” value ([5]; HF+Feno, 250 mg/kg/day oral)?
Answer: 62.0 mg/g

Question: What about the Liver lipids: Triacylglycerol ([5]; HF+Feno, 250 mg/kg/day oral) of the same molecule?
Answer: 48.6 µmol/g

Question: And the Adipocyte area ([7]; HF+Feno, 0.25 g/kg/day oral)?
Answer: 6270.5 ± 165.4 μm^2
